Common to all, as to type: biochemical
The target of assay [1] is Btk (Homo sapiens, UniProt Q06187). Nature of the assay: Btk kinase activity, TR-FRET assay. The settings on record: read-out: Btk (IC50). The procedure, abridged:
(§1)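 Enzyme (Btk 0.5 nM; Lck 6 nM) reacted 1 h with inhibitor, ATP at Km and biotin-peptide substrate in pH 7.4 buffer, 10% DMSO. Phosphopeptide detected by Eu-p-Tyr100 antibody plus streptavidin-APC (665/615 nm). IC50 calculated from fitted Ki(app) via ATP/Km correction plus half total enzyme.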

Assay [2] concerns the target T1, JAK3 (Homo sapiens, UniProt P52333).
T1 sequence (P52333 1-1124): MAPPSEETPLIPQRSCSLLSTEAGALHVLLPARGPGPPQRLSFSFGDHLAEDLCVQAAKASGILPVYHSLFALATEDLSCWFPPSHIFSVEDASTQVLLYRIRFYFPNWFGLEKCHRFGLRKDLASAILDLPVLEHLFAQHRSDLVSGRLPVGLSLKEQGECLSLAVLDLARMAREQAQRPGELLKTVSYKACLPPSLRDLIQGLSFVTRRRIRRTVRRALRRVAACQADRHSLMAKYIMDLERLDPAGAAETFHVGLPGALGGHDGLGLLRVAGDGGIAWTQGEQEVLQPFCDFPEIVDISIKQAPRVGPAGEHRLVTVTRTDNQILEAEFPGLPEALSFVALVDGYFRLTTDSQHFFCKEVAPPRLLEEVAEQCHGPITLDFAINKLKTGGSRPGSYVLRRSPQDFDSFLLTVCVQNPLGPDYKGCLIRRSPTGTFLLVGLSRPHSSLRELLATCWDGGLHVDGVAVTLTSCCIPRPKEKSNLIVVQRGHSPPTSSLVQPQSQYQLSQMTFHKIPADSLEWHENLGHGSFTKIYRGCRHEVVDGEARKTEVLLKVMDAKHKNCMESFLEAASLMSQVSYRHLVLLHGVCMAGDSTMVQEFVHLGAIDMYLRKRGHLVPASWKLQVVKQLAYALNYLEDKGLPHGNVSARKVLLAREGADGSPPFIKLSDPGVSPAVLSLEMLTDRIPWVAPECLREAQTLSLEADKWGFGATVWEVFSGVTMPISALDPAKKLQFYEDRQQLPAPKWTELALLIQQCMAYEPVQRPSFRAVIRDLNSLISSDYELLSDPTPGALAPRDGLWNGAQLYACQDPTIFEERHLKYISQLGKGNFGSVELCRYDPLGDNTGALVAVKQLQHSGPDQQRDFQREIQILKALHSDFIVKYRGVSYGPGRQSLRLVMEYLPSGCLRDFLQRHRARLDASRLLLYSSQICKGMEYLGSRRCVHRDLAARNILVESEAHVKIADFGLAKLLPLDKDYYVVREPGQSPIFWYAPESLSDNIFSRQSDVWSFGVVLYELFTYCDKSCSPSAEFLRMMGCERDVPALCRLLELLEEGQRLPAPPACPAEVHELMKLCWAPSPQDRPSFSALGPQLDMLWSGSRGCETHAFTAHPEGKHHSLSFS
The assay is described as follows: Inhibition of a panel of kinases, in vitro HotSpot kinase assay: JAK3. The procedure:
(§2) The degree of inhibition of a panel of kinases is determined using the in vitro HotSpot kinase assay (purified enzymes, ^33P-ATP, an appropriate substrate and 1 uM ATP).

Assay [3] addresses Lck (Homo sapiens, UniProt P06239). Nature of the assay: Lck kinase activity, TR-FRET assay. The conditions noted are these: read-out: LCK (IC50). The procedure, abridged: as §1
(Time-resolved FRET reads energy transfer from a long-lived donor to a nearby acceptor.)

For assay [4], the target named is EGFR (Homo sapiens, UniProt P00533). The assay is described as follows: Inhibition of a panel of kinases, in vitro HotSpot kinase assay: EGFR. The procedure:
as §2

EGFR, sequence (P00533 25-1210): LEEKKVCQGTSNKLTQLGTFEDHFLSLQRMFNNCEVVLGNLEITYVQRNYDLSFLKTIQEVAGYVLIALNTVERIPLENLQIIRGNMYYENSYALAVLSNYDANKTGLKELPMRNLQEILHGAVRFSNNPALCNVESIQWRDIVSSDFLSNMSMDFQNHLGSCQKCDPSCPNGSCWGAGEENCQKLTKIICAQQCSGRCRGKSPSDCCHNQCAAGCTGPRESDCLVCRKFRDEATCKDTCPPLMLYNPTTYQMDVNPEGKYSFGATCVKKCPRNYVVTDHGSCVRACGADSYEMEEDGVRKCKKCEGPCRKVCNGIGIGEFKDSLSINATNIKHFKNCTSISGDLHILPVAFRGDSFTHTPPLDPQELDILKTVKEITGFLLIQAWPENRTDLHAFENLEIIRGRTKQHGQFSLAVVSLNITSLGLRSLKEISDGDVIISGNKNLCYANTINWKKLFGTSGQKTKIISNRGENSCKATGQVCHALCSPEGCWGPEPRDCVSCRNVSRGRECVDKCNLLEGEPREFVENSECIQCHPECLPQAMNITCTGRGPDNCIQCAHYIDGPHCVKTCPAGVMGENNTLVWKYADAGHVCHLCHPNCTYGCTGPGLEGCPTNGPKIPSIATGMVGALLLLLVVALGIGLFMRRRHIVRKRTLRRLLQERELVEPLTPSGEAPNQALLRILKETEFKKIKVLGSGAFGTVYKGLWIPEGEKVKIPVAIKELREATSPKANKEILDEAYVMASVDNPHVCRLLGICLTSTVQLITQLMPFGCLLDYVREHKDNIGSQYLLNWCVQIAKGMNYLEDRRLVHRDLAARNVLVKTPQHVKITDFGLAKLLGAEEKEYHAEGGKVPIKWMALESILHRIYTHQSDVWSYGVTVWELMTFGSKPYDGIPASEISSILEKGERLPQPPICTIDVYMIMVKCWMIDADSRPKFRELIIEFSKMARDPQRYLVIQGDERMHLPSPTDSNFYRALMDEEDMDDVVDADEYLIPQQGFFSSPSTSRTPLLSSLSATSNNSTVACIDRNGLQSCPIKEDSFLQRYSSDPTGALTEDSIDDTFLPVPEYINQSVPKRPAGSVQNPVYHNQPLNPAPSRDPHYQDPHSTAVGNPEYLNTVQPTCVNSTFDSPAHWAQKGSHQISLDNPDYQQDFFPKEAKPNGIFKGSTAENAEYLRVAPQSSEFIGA
Lck, sequence (P06239 whole entry, species assumed): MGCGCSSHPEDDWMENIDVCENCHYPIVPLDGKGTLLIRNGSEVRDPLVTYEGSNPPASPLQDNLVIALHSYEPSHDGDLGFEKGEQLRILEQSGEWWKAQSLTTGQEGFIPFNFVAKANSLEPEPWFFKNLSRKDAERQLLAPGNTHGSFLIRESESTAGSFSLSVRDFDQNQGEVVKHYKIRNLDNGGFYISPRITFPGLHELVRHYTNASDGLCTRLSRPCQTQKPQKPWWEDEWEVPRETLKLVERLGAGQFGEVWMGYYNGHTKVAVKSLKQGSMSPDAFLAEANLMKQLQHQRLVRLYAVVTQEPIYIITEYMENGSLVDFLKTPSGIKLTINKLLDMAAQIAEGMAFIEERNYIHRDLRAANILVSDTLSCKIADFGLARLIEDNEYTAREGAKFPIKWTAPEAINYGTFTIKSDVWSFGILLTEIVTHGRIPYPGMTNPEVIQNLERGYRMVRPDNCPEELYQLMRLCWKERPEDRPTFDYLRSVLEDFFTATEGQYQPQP
Btk, sequence (Q06187 whole entry): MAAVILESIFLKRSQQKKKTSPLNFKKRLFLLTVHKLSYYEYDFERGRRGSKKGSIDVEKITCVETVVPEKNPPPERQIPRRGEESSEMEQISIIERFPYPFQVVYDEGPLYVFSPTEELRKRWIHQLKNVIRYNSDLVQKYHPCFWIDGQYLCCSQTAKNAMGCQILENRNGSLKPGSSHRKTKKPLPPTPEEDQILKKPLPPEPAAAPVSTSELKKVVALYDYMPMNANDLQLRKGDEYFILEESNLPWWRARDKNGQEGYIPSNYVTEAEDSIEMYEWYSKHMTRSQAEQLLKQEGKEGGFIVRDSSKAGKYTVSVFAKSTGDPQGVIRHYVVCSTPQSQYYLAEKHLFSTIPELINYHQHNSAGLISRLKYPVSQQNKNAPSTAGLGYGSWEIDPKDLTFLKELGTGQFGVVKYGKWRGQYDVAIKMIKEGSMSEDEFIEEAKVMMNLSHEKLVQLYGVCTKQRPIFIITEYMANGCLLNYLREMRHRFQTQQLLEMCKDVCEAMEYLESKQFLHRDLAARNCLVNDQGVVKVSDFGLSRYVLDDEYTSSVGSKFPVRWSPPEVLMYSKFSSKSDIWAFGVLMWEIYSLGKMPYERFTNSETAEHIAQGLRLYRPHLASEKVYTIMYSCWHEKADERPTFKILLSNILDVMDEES

The IC50 is the concentration that inhibits the measured activity by half. As to `C=CC(=O)N1CCC[C@@H](Nc2n[nH]c3nccc(Oc4ccc(C(=O)Nc5nc6c(s5)CCN(C)C6)cc4)c23)C1` [compound 145], the IC50 in assay [1] was under 0.1 µM; in assay [2], under 0.1 µM; in assay [3] it was over 10 µM; in assay [4], over 10 µM.

For `C=CC(=O)N1CCC[C@@H](Nc2n[nH]c3nccc(Oc4ccc(C(=O)Nc5nc(C)c(C)s5)cc4)c23)C1` [compound 146], the half-inhibitory concentration (IC50) in assay [1] was under 0.1 µM; in assay [2], under 0.1 µM; in assay [3], 0.1 to 1 µM; in assay [4], 0.1 to 1 µM.

In the case of `C=CC(=O)N1CCC[C@@H](Nc2n[nH]c3nccc(Oc4cccc(-c5ncc(C)s5)c4)c23)C1` [compound 148], the concentration for half-maximal inhibition (IC50) in assay [1] is 0.1 to 1 µM; in assay [2] it was 1 to 10 µM; in assay [3], over 10 µM; in assay [4], 0.1 to 1 µM.

On to `C=CC(=O)N1CCC[C@@H](Nc2n[nH]c3nccc(Oc4cccc(C(=O)Nc5ncc(C)s5)c4)c23)C1` [compound 149], for which the 50% inhibitory concentration (IC50) in assay [1] is under 0.1 µM; in assay [2], under 0.1 µM; in assay [3], 1 to 10 µM; in assay [4], under 0.1 µM.

In the case of `C=CC(=O)N1CCC[C@@H](Nc2n[nH]c3nccc(Oc4ccc(Oc5ccccc5)c(C)c4)c23)C1` [compound 153], the IC50 is under 0.1 µM in assay [1], 0.1 to 1 µM in assay [2], 0.1 to 1 µM in assay [3] and under 0.1 µM in assay [4].

As to `C=CC(=O)N1CCC[C@@H](Nc2n[nH]c3nccc(Oc4ccc(-c5nc(C(F)(F)F)c[nH]5)cc4)c23)C1` [compound 154], the IC50 in assay [1] is under 0.1 µM; in assay [2], 1 to 10 µM; in assay [3], over 10 µM; in assay [4], 1 to 10 µM.

In the case of `Cc1cc(Oc2ccnc3[nH]nc(N[C@@H]4CCCN(C(=O)/C=C/CN(C)C5CC5)C4)c23)ccc1Oc1ccccc1` [compound 156], the IC50 in assay [1] is under 0.1 µM; in assay [2], over 10 µM; in assay [3], 0.1 to 1 µM; in assay [4] it was 0.1 to 1 µM.

Regarding `C=CC(=O)N1CCC[C@@H](Nc2n[nH]c3nccc(Oc4ccc(-c5ncc(C)s5)cc4)c23)C1` [compound 158], the IC50 was under 0.1 µM in assay [1], 1 to 10 µM in assay [2], 1 to 10 µM in assay [3] and 0.1 to 1 µM in assay [4].

Turning to `C=CC(=O)N1CCC[C@@H](Nc2n[nH]c3nccc(Oc4ccc(C(=O)Nc5cc(C)n(C)n5)cc4)c23)C1` [compound 159], the half-inhibitory concentration (IC50) in assay [1] is under 0.1 µM; in assay [2], 0.1 to 1 µM; in assay [3], over 10 µM; in assay [4], 1 to 10 µM.

Consider `CN(C)CCCC(=O)N1CCC[C@@H](Nc2n[nH]c3nccc(Oc4ccc(C(=O)Nc5cc(C(F)(F)F)ccn5)cc4)c23)C1` [compound 161], for which the IC50 in assay [1] is under 0.1 µM; in assay [2], over 10 µM; in assay [3], under 0.1 µM; in assay [4] it was 0.1 to 1 µM.

For `C=CC(=O)N1CCC[C@@H](Nc2n[nH]c3nccc(Oc4ccc(C(=O)Nc5nc6ccccc6s5)cc4)c23)C1` [compound 162], the half-maximal inhibitory concentration (IC50) in assay [1] is under 0.1 µM; in assay [2] it was under 0.1 µM; in assay [3], 0.1 to 1 µM; in assay [4], under 0.1 µM.

As to `Cc1nc(NC(=O)c2ccc(Oc3ccnc4[nH]nc(N[C@@H]5CCCN(C(=O)/C=C/CN(C)C6CC6)C5)c34)cc2)sc1C` [compound 164], the IC50 in assay [1] was under 0.1 µM; in assay [2] it was 1 to 10 µM; in assay [3], 1 to 10 µM; in assay [4] it was 1 to 10 µM.

Consider `Cc1cc(NC(=O)c2ccc(Oc3ccnc4[nH]nc(N[C@@H]5CCCN(C(=O)/C=C/CN(C)C6CC6)C5)c34)cc2)nn1C` [compound 165], for which the 50% inhibitory concentration (IC50) in assay [1] is 0.1 to 1 µM; in assay [2], over 10 µM; in assay [3], over 10 µM; in assay [4] it was over 10 µM.

On to `CN(C/C=C/C(=O)N1CCC[C@@H](Nc2n[nH]c3nccc(Oc4ccc(C(=O)Nc5nc6ccccc6s5)cc4)c23)C1)C1CC1` [compound 167], for which the IC50 in assay [1] was under 0.1 µM; in assay [2], 1 to 10 µM; in assay [3] it was 0.1 to 1 µM; in assay [4] it was 1 to 10 µM.

`Cc1cc(Oc2ccccc2)ccc1Oc1ccnc2[nH]nc(N[C@@H]3CCCN(C(=O)/C=C/CN(C)C4CC4)C3)c12` [compound 169]: the concentration for half-maximal inhibition (IC50) in assay [1] was under 0.1 µM; in assay [2], 1 to 10 µM; in assay [3], under 0.1 µM; in assay [4], 0.1 to 1 µM.

As for `CN(C)CCCC(=O)N1CCC[C@@H](Nc2n[nH]c3nccc(Oc4ccc(C(=O)Nc5nc6ccccc6s5)cc4)c23)C1` [compound 172], the IC50 in assay [1] is under 0.1 µM; in assay [2], under 0.1 µM; in assay [3] it was under 0.1 µM; in assay [4] it was 0.1 to 1 µM.

On to `O=C(Nc1cc(C(F)(F)F)ccn1)c1ccc(Oc2ccnc3[nH]nc(N[C@@H]4CCCN(C(=O)C5CC5)C4)c23)cc1` [compound 173], for which the IC50 is under 0.1 µM in assay [1], over 10 µM in assay [2], 0.1 to 1 µM in assay [3] and 1 to 10 µM in assay [4].

On to `CC#CC(=O)N1CCC[C@@H](Nc2n[nH]c3nccc(Oc4ccc(C(=O)Nc5nc(C)c(C)s5)cc4)c23)C1` [compound 175], for which the IC50 in assay [1] was under 0.1 µM; in assay [2], over 10 µM; in assay [3], 0.1 to 1 µM; in assay [4] it was over 10 µM.

As for `CCNC(=O)N1CCC[C@@H](Nc2n[nH]c3nccc(Oc4ccc(C(=O)Nc5nc6ccccc6s5)cc4)c23)C1` [compound 176], the half-inhibitory concentration (IC50) in assay [1] is under 0.1 µM; in assay [2], 0.1 to 1 µM; in assay [3], 0.1 to 1 µM; in assay [4], over 10 µM.

Consider `CC#CC(=O)N1CCC[C@@H](Nc2n[nH]c3nccc(Oc4ccc(C(=O)Nc5ncc(CC)s5)cc4)c23)C1` [compound 177], for which the IC50 in assay [1] was under 0.1 µM; in assay [2], 1 to 10 µM; in assay [3], 0.1 to 1 µM; in assay [4], 1 to 10 µM.

In the case of `C=CC(=O)N1CCC[C@@H](Nc2n[nH]c3nccc(Oc4ccc(C(=O)Nc5cc(C)on5)cc4)c23)C1` [compound 178], the IC50 in assay [1] was under 0.1 µM; in assay [2] it was 0.1 to 1 µM; in assay [3] it was over 10 µM; in assay [4] it was 1 to 10 µM.

Consider `C=CC(=O)N1CCC[C@@H](Nc2n[nH]c3nccc(Oc4ccc(C(=O)Nc5ncc(CC)s5)cc4)c23)C1` [compound 179], for which the IC50 was under 0.1 µM in assay [1], under 0.1 µM in assay [2], 0.1 to 1 µM in assay [3] and under 0.1 µM in assay [4].

For the compound `CC#CC(=O)N1CC[C@@H](Nc2n[nH]c3nccc(Oc4ccc(C(=O)Nc5ncc(C)s5)cc4)c23)C1` [compound 181], the IC50 was under 0.1 µM in assay [1], over 10 µM in assay [2], 1 to 10 µM in assay [3] and 1 to 10 µM in assay [4].

In the case of `CC#CC(=O)N1CCC[C@@H](Nc2n[nH]c3nccc(Oc4ccc(C(=O)Nc5nc6ccccc6s5)cc4)c23)C1` [compound 183], the IC50 in assay [1] was under 0.1 µM; in assay [2], 0.1 to 1 µM; in assay [3], 0.1 to 1 µM; in assay [4] it was over 10 µM.

For the compound `CC#CC(=O)N1CCC[C@@H](Nc2n[nH]c3nccc(Oc4ccc(C(=O)Nc5cc(C)n(C)n5)cc4)c23)C1` [compound 185], the half-maximal inhibitory concentration (IC50) in assay [1] was 0.1 to 1 µM; in assay [2], over 10 µM; in assay [3], over 10 µM; in assay [4], over 10 µM.

Regarding `C=CC(=O)N1CCC[C@@H](Nc2n[nH]c3nccc(Oc4ccc(C(=O)Nc5nnc(C)s5)cc4)c23)C1` [compound 187], the IC50 in assay [1] was 0.1 to 1 µM; in assay [2] it was under 0.1 µM; in assay [3], over 10 µM; in assay [4], 0.1 to 1 µM.

For the compound `CCNC(=O)N1CC[C@@H](Nc2n[nH]c3nccc(Oc4ccc(C(=O)Nc5cc(C(F)(F)F)ccn5)cc4)c23)C1` [compound 188], the IC50 was under 0.1 µM in assay [1], over 10 µM in assay [2], 0.1 to 1 µM in assay [3] and 1 to 10 µM in assay [4].

The record behind these values is patent US9580416B2, “Inhibitors of Bruton's tyrosine kinase” (PHARMACYCLICS LLC, priority 2014, dated 2017).
